From patent US9994594B2, “Inhibitors of arginase and their therapeutic applications” (MARS, INCORPORATED, priority 2010, dated 2018)
Where a name gives a salt, the structure may show the parent alone.

How the values were obtained:
human arginase I (ARG I) = molecular target: T1, human arginase I (ARG I) (Homo sapiens, UniProt P05089); test: Inhibition of arginase I, spectrophotometric urea assay at 530 nm; format: biochemical; settings: Formula I compounds, Table 2; read-out: Potency (ARG I)
T1 sequence (P05089 1-322): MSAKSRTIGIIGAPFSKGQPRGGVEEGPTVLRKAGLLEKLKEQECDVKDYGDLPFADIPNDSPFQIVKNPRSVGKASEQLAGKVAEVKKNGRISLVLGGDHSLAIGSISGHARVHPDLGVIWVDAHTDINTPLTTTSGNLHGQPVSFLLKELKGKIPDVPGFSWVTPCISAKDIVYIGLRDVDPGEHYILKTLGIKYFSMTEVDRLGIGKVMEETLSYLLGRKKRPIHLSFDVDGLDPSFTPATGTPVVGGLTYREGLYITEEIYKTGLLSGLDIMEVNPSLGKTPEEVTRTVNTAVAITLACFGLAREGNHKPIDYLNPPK
Outline: (§1)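 IC50 was derived by regression of OD530 normalized to uninhibited-enzyme controls against log concentration. Urea from 60-min, 37 °C turnover of L-arginine with manganese sulfate was detected after acid o-phthaldialdehyde/primaquine quench and 10 min colour development. Arginase I and II came from 100 ng/ml stocks in pH 7.4 phosphate with ovalbumin.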

arginase II (ARG II) = molecular target: T2, arginase II (ARG II) (Homo sapiens, UniProt P78540); test: Inhibition of arginase II, spectrophotometric urea assay at 530 nm; format: biochemical; settings: Formula I compounds, Table 2; read-out: Potency (ARG II)
T2 sequence (P78540 23-354): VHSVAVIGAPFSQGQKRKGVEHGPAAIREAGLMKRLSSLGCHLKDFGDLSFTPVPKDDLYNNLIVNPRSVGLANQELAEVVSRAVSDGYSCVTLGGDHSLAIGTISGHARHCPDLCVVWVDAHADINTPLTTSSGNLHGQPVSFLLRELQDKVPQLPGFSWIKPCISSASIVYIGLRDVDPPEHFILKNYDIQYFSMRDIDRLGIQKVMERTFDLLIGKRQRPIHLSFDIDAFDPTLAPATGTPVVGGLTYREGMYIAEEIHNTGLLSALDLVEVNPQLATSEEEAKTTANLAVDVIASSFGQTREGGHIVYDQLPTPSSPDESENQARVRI
Outline: as §1

## N[C@](CCCCB(O)O)(CCN1CCC[C@H](O)C1)C(=O)O [compound 5, (R)-2-amino-6-borono-2-(2-((S)-3-hydroxypiperidin-1-yl)ethyl)hexanoic acid dihydrochloride]
Human arginase I (ARG I)
  IC50: 1 to 2 µM
Arginase II (ARG II)
  IC50: 2 to 5 µM

## COc1ccc(CCN(C)CC[C@](N)(CCCCB(O)O)C(=O)O)cc1OC [compound 6, (R)-2-amino-6-borono-2-(2-((3,4-dimethoxyphenethyl)(methyl)amino)ethyl)hexanoic acid dihydrochloride]
Human arginase I (ARG I)
  IC50: 0.251 to 1 µM
Arginase II (ARG II)
  IC50: 1 to 2 µM

## N[C@](CCCCB(O)O)(CCN1CC[C@@H](CO)C1)C(=O)O [compound 7, (R)-2-amino-6-borono-2-(2-((R)-3-(hydroxymethyl)pyrrolidin-1-yl)ethyl)hexanoic acid dihydrochloride]
Human arginase I (ARG I)
  IC50: 0.0001 to 0.25 µM
Arginase II (ARG II)
  IC50: 0.251 to 1 µM

## N[C@](CCCCB(O)O)(CCN1CCSCC1)C(=O)O [compound 8, (R)-2-amino-6-borono-2-(2-thiomorpholinoethyl)hexanoic acid dihydrochloride]
Human arginase I (ARG I)
  IC50: 1 to 2 µM
Arginase II (ARG II)
  IC50: 2 to 5 µM

## N[C@](CCCCB(O)O)(CCN1CCC(CCO)CC1)C(=O)O [compound 9, (R)-2-amino-6-borono-2-(2-(4-(2-hydroxyethyl)piperidin-1-yl)ethyl)hexanoic acid dihydrochloride]
Human arginase I (ARG I)
  IC50: 0.0001 to 0.25 µM
Arginase II (ARG II)
  IC50: 0.251 to 1 µM

## N[C@](CCCCB(O)O)(CCN1CCC[C@H]1CO)C(=O)O [compound 10, (R)-2-amino-6-borono-2-(2-((S)-2-(hydroxymethyl)pyrrolidin-1-yl)ethyl)hexanoic acid]
Human arginase I (ARG I)
  IC50: 0.0001 to 0.25 µM
Arginase II (ARG II)
  IC50: 0.251 to 1 µM

## CN(CCc1ccccc1)CC[C@](N)(CCCCB(O)O)C(=O)O [compound 11, (R)-2-amino-6-borono-2-(2-(methyl(phenethyl)amino)ethyl) hexanoic acid dihydrochloride]
Human arginase I (ARG I)
  IC50: 0.0001 to 0.25 µM
Arginase II (ARG II)
  IC50: 0.0001 to 0.25 µM

## CN(CC[C@](N)(CCCCB(O)O)C(=O)O)C[C@@H](O)c1cccc(O)c1 [compound 12, (R)-2-amino-6-borono-2-(2-(((S)-2-hydroxy-2-(3-hydroxyphenyl)ethyl)(methyl)amino)ethyl)hexanoic acid dihydrochloride]
Human arginase I (ARG I)
  IC50: 0.0001 to 0.25 µM
Arginase II (ARG II)
  IC50: 0.0001 to 0.25 µM

## N[C@](CCCCB(O)O)(CCN1CCCCC1)C(=O)O [compound 13, (R)-2-amino-6-borono-2-(2-(piperidin-1-yl)ethyl)hexanoic acid]
Human arginase I (ARG I)
  IC50: 0.0001 to 0.25 µM
Arginase II (ARG II)
  IC50: 0.251 to 1 µM

## C=CCC(N)(CCCCB(O)O)C(=O)O (centres unmarked) [compound 14, 2-allyl-2-amino-6-boronohexanoic acid]
Human arginase I (ARG I)
  IC50: 0.043 µM
Arginase II (ARG II)
  IC50: > 5 µM

## CC[C@](N)(CCCCB(O)O)C(=O)O [compound 15, (S)-2-amino-6-borono-2-ethylhexanoic acid hydrochloride]
Human arginase I (ARG I)
  IC50: 2 to 5 µM
Arginase II (ARG II)
  IC50: 2 to 5 µM

## NC(CCCCB(O)O)(CCN1CCCC1)C(=O)O (centres unmarked) [compound 16, 2-amino-6-borono-2-(2-(pyrrolidin-1-yl)ethyl)hexanoic acid]
Human arginase I (ARG I)
  IC50: 0.251 to 1 µM
Arginase II (ARG II)
  IC50: 1 to 2 µM

## NC(CCCCB(O)O)(CCN1CCN(c2ncccn2)CC1)C(=O)O (centres unmarked) [compound 17, 2-Amino-6-borono-2-[2-(4-pyrimidin-2-yl-piperazin-1-yl)ethyl]-hexanoic acid trihydrochloride]
Human arginase I (ARG I)
  IC50: 2 to 5 µM
Arginase II (ARG II)
  IC50: 2 to 5 µM

## CN(CCC(N)(CCCCB(O)O)C(=O)O)CC(=O)O (centres unmarked) [compound 18, 2-amino-6-borono-2-(2-((carboxymethyl)(methyl)amino)ethyl)hexanoic acid dihydrochloride]
Human arginase I (ARG I)
  IC50: 2 to 5 µM
Arginase II (ARG II)
  IC50: 2 to 5 µM

## NC(CCCCB(O)O)(CCN(CCO)Cc1ccccc1)C(=O)O (centres unmarked) [compound 20, 2-Amino-2-{2-[benzyl-(2-hydroxyethyl)-amino]-ethyl}-6-borono-hexanoic acid dihydrochloride]
Human arginase I (ARG I)
  IC50: 2 to 5 µM
Arginase II (ARG II)
  IC50: 2 to 5 µM

## NC(CCCCB(O)O)(CCN1CCC(C(=O)O)CC1)C(=O)O (centres unmarked) [compound 21, 1-(3-amino-7-borono-3-carboxyheptyl)piperidine-4-carboxylic acid]
Human arginase I (ARG I)
  IC50: 1 to 2 µM
Arginase II (ARG II)
  IC50: 1 to 2 µM

## NC(CCCCB(O)O)(CCN1CCC(CO)CC1)C(=O)O (centres unmarked) [compound 22, 2-amino-6-borono-2-(2-(4-(hydroxymethyl)piperidin-1-yl)ethyl)hexanoic acid]
Human arginase I (ARG I)
  IC50: 0.251 to 1 µM
Arginase II (ARG II)
  IC50: 0.251 to 1 µM

## CCN(CC)C(=O)C1CCCN(CCC(N)(CCCCB(O)O)C(=O)O)C1 (centres unmarked) [compound 23, 2-Amino-6-borono-2-[2-(3-diethylcarbamoyl-piperidin-1-yl)-ethyl]-hexanoic acid dihydrochloride]
Human arginase I (ARG I)
  IC50: 0.251 to 1 µM
Arginase II (ARG II)
  IC50: 0.251 to 1 µM

## COc1cc2c(cc1OC)CN(CCC(N)(CCCCB(O)O)C(=O)O)CC2 (centres unmarked) [compound 26, 2-Amino-6-borono-2-[2-(6,7-dimethoxy-3,4-dihydro-1H-isoquinolin-2-yl)ethyl]-hexanoic acid dihydrochloride]
Human arginase I (ARG I)
  IC50: 0.251 to 1 µM
Arginase II (ARG II)
  IC50: 0.251 to 1 µM

## COc1ccc(CN(C)CCC(N)(CCCCB(O)O)C(=O)O)cc1 (centres unmarked) [compound 27, 2-amino-6-borono-2-(2-((4-methoxybenzyl)(methyl)amino)ethyl)hexanoic acid dihydrochloride]
Human arginase I (ARG I)
  IC50: 1 to 2 µM
Arginase II (ARG II)
  IC50: 1 to 2 µM

## NC(CCCCB(O)O)(CCN1CC=C(c2ccccc2)CC1)C(=O)O (centres unmarked) [compound 28, 2-amino-6-borono-2-(2-(4-phenyl-5,6-dihydropyridin-1(2H)-yl)ethyl)hexanoic acid dihydrochloride]
Human arginase I (ARG I)
  IC50: 0.251 to 1 µM
Arginase II (ARG II)
  IC50: 1 to 2 µM

## NC(CCCCB(O)O)(CCN1CCc2sccc2C1)C(=O)O (centres unmarked) [compound 29, 2-amino-6-borono-2-(2-(6,7-dihydrothieno[3,2-c]pyridin-5(4H)-yl)ethyl)hexanoic acid dihydrochloride]
Human arginase I (ARG I)
  IC50: 0.251 to 1 µM
Arginase II (ARG II)
  IC50: 1 to 2 µM

## NC(CCCCB(O)O)(CCN1CCc2[nH][nH]c(=O)c2C1)C(=O)O (centres unmarked) [compound 30, 2-amino-6-borono-2-(2-(3-oxo-2,3,6,7-tetrahydro-1H-pyrazolo[4,3-c]pyridin-5(4H)-yl)ethyl)hexanoic acid dihydrochloride]
Human arginase I (ARG I)
  IC50: 0.251 to 1 µM
Arginase II (ARG II)
  IC50: 1 to 2 µM

## COc1ccc(C2=CCN(CCC(N)(CCCCB(O)O)C(=O)O)CC2)cc1 (centres unmarked) [compound 31, 2-amino-6-borono-2-(2-(4-(4-methoxyphenyl)-5,6-dihydropyridin-1(2H)-yl)ethyl)hexanoic acid dihydrochloride]
Human arginase I (ARG I)
  IC50: 0.251 to 1 µM
Arginase II (ARG II)
  IC50: 0.251 to 1 µM

## COC[C@@H]1CCCN1CCC(N)(CCCCB(O)O)C(=O)O (stereo partly drawn) [compound 33, 2-amino-6-borono-2-(2-((S)-2-(methoxymethyl)pyrrolidin-1-yl)ethyl)hexanoic acid dihydrochloride]
Human arginase I (ARG I)
  IC50: 0.251 to 1 µM
Arginase II (ARG II)
  IC50: 0.251 to 1 µM

## NC(CCCCB(O)O)(CCN1CCC(O)(Cc2ccccc2)CC1)C(=O)O (centres unmarked) [compound 34, 2-amino-2-(2-(4-benzyl-4-hydroxypiperidin-1-yl)ethyl)-6-boronohexanoic acid dihydrochloride]
Human arginase I (ARG I)
  IC50: 0.251 to 1 µM
Arginase II (ARG II)
  IC50: 1 to 2 µM

## NC(CCCCB(O)O)(CCN1CCc2ccccc2C1)C(=O)O (centres unmarked) [compound 36, 2-amino-6-borono-2-(2-(3,4-dihydroisoquinolin-2(1H)-yl)ethyl)hexanoic acid dihydrochloride]
Human arginase I (ARG I)
  IC50: 0.251 to 1 µM
Arginase II (ARG II)
  IC50: 1 to 2 µM

## CCN(CC)CCC(N)(CCCCB(O)O)C(=O)O (centres unmarked) [compound 37, 2-amino-6-borono-2-(2-(diethylamino)ethyl)hexanoic acid dihydrochloride]
Human arginase I (ARG I)
  IC50: 0.251 to 1 µM
Arginase II (ARG II)
  IC50: 1 to 2 µM

## NC(CCCCB(O)O)(CCN1CCC(=O)CC1)C(=O)O (centres unmarked) [compound 38, 2-amino-6-borono-2-(2-(4-oxopiperidin-1-yl)ethyl)hexanoic acid dihydrochloride]
Human arginase I (ARG I)
  IC50: 2 to 5 µM
Arginase II (ARG II)
  IC50: 2 to 5 µM

## NC(CCCCB(O)O)(CCN1CCC(C(F)(F)F)CC1)C(=O)O (centres unmarked) [compound 39, 2-amino-6-borono-2-(2-(4-(trifluoromethyl)piperidin-1-yl)ethyl)hexanoic acid dihydrochloride]
Human arginase I (ARG I)
  IC50: 1 to 2 µM
Arginase II (ARG II)
  IC50: 2 to 5 µM

## NC(CCCCB(O)O)(CCN1CCC[C@H]1CN1CCCC1)C(=O)O (stereo partly drawn) [compound 40, 2-amino-6-borono-2-(2-((S)-2-(pyrrolidin-1-ylmethyl)pyrrolidin-1-yl)ethyl)hexanoic acid trihydrochloride]
Human arginase I (ARG I)
  IC50: 1 to 2 µM
Arginase II (ARG II)
  IC50: 2 to 5 µM

## COC1CCN(CCC(N)(CCCCB(O)O)C(=O)O)CC1 (centres unmarked) [compound 41, 2-amino-6-borono-2-(2-(4-methoxypiperidin-1-yl)ethyl)hexanoic acid dihydrochloride]
Human arginase I (ARG I)
  IC50: 1 to 2 µM
Arginase II (ARG II)
  IC50: 2 to 5 µM

## NC(CCCCB(O)O)(CCN1CCCC1c1cc2ccccc2o1)C(=O)O (centres unmarked) [compound 42, 2-amino-2-(2-(2-(benzofuran-2-yl)pyrrolidin-1-yl)ethyl)-6-boronohexanoic acid dihydrochloride]
Human arginase I (ARG I)
  IC50: 2 to 5 µM
Arginase II (ARG II)
  IC50: 2 to 5 µM

## CN(CCO)CCC(N)(CCCCB(O)O)C(=O)O (centres unmarked) [compound 43, 2-amino-6-borono-2-(2-((2-hydroxyethyl)(methyl)amino)ethyl)hexanoic acid dihydrochloride]
Human arginase I (ARG I)
  IC50: 1 to 2 µM
Arginase II (ARG II)
  IC50: 2 to 5 µM
